Test results taken from patent US10059674B2, “Design, synthesis, and biological evaluation of 1-methyl-1, 4-dihyrdoindeno[1,2-C]pyrazole analogues as potential anticaner agents targeting tubulin colchicine binding site” (ACT PHARMA CO., LTD., priority 2016, dated 2018).
Read-outs that look alike come from different tables or passages of the source.

How the values were obtained:
[1] = In vivo pharmacokinetic test, drug concentration in blood plasma by LC-MS/MS; design: species or system SD rats; settings: for Drug concentration in blood plasma / concentration at 0.25 h / concentration at 0.5 h / concentration at 1 h / concentration at 8 h / concentration at 24 h / concentration at 0.08 h / concentration at 2 h / concentration at 4 h: SD rats; for Drug concentration in blood plasma / concentration at 24 h: 24 h; for concentration at 0.25 h / concentration at 0.5 h / concentration at 1 h / concentration at 8 h / concentration at 24 h / concentration at 0.08 h / concentration at 2 h / concentration at 4 h / AUC(0-t) / Cmax / AUC(0-inf) / clearance / MRT inf / Vd / Vd/F: SD; for concentration at 0.25 h / concentration at 0.5 h / concentration at 1 h / concentration at 8 h / concentration at 24 h / concentration at 0.08 h / concentration at 2 h / concentration at 4 h / AUC(0-t) / Cmax / AUC(0-inf) / clearance / MRT inf / Vd / Vd/F / Tmax: rat, plasma; for HL_Lambda_z / Cl—F—pred / F / AUC(0-t) / Cmax / AUC(0-inf) / clearance / MRT inf / Vd / Vd/F / Tmax: male SD rats; for AUC(0-inf): read-out: AUCINF—pred; for clearance: read-out: Cl—pred (converted); for MRT inf: read-out: MRTINF—pred; for Vd: read-out: Vz—pred; for Vd/F: read-out: Vz—F—pred
Description: 2. Test animal: SD rats, which are 284-304 g before the test, and bought from Shanghai Xipuer-Bikai laboratory animal Co., Ltd. with production license No. SCXK (Hu) 2013-0016, and laboratory animal certificate Nos. 2008001658223 and 2008001658296.
2.85 mg of compound LL-01 is weighed, and then put into a glass bottle; 0.687 mL of DMSO is added into the glass bottle, and ultrasonic treatment is carried out for 2 min; next, 2.062 mL of Solutol HS 15 is added thereto, and ultrasonic treatment is carried out for 4 min; and then 10.995 mL of PBS is added thereto, and ultrasonic treatment is carried out for 8 min after eddying. This test substance is numbered 20160324-RW-01, 12.74 mg of compound LL-01 is weighed, and then put into a glass bottle; 0.614 mL of DMSO is added into the glass bottle, and ultrasonic treatment is carried out for 2 min; next, 1.843 mL of Solutol HS 15 is added thereto, and ultrasonic treatment is carried out for 4 min; and then 9.830 mL of PBS is added thereto, and ultrasonic treatment is carried out for 8 min after eddying. This test substance is numbered 20160324-RW-02,
The dosage of intravenous administration is 1 mg/kg, while the dosage of oral administration is 10 mg/kg. A night of fasting is required before administration, and feeding should be carried out 4 hours later after administration.
Blood is collected (about 150-200 uL) at every time points of 0.083 (only vein), 0.25, 0.5, 1, 2, 4, 8, and 24 hours after administration through orbital venous plexus puncture into EDTA-K2 (20%, and 2 μL) anticoagulant tubes, respectively; the blood samples are centrifuged 8 min at 6000 rpm in 1 h (placed on wet ice before being centrifuged), and the supernatant, namely blood plasma is put into −20° C. low-temperature conservation for LC-MS/MS analysis later.
The content of compound LL-01 in SD rat blood plasma is detected by use of LC-MS/MS method.
Computer program Microsoft Office Excel 2007 (Microsoft, USA) is used for data processing, and drawing. A statistical moment method of WinNolin 6.4 processing software is used to calculate pharmacokinetic parameters.

[2] = dog, microsomes, 1 µM, pH 7.47
[3] = po, 10 mg/kg, oral 10 mg/kg, Mean
[4] = po, 10 mg/kg, oral 10 mg/kg, animal 201M
[5] = po, 10 mg/kg, oral 10 mg/kg, animal 202M
[6] = po, 10 mg/kg, oral 10 mg/kg, animal 203M
[7] = single intravenous 1 mg/kg, animal 101M
[8] = single oral 10 mg/kg, animal 201M
[9] = single oral 10 mg/kg, animal 202M
[10] = single oral 10 mg/kg, animal 203M
[11] = male, iv, 1 mg/kg, intravenous 1 mg/kg, Mean
[12] = male, iv, 1 mg/kg, intravenous 1 mg/kg, animal 101M
[13] = male, iv, 1 mg/kg, intravenous 1 mg/kg, animal 102M
[14] = male, iv, 1 mg/kg, intravenous 1 mg/kg, animal 103M
[15] = male, iv, 1 mg/kg, single intravenous 1 mg/kg, Mean
[16] = male, iv, 1 mg/kg, single intravenous 1 mg/kg, animal 101M
[17] = male, iv, 1 mg/kg, single intravenous 1 mg/kg, animal 102M
[18] = male, iv, 1 mg/kg, single intravenous 1 mg/kg, animal 103M
[19] = male, po, 10 mg/kg, oral 10 mg/kg, Mean
[20] = male, po, 10 mg/kg, oral 10 mg/kg, animal 201M
[21] = male, po, 10 mg/kg, oral 10 mg/kg, animal 202M
[22] = male, po, 10 mg/kg, oral 10 mg/kg, animal 203M
[23] = male, po, 10 mg/kg, single oral 10 mg/kg, Mean
[24] = male, po, 10 mg/kg, single oral 10 mg/kg, animal 201M
[25] = male, po, 10 mg/kg, single oral 10 mg/kg, animal 202M
[26] = male, po, 10 mg/kg, single oral 10 mg/kg, animal 203M

- Drug concentration in blood plasma ([1]; intravenous 1 mg/kg, animal 101M): BLQ
- Drug concentration in blood plasma ([1]; intravenous 1 mg/kg, animal 102M): BLQ
- Drug concentration in blood plasma ([1]; intravenous 1 mg/kg, animal 103M): BLQ
- concentration at 0.25 h [1, 3]: 280 ng/mL
- concentration at 0.25 h [1, 4]: 159 ng/mL
- concentration at 0.25 h [1, 5]: 466 ng/mL
- concentration at 0.25 h [1, 6]: 216 ng/mL
- concentration at 0.5 h [1, 3]: 558 ng/mL
- concentration at 0.5 h [1, 4]: 374 ng/mL
- concentration at 0.5 h [1, 5]: 959 ng/mL
- concentration at 0.5 h [1, 6]: 339 ng/mL
- concentration at 1 h [1, 3]: 917 ng/mL
- concentration at 1 h [1, 4]: 869 ng/mL
- concentration at 1 h [1, 5]: 1100 ng/mL
- concentration at 1 h [1, 6]: 778 ng/mL
- concentration at 8 h [1, 3]: 604 ng/mL
- concentration at 8 h [1, 5]: 916 ng/mL
- concentration at 8 h [1, 6]: 446 ng/mL
- concentration at 24 h [1, 3]: 26.9 ng/mL
- concentration at 24 h [1, 4]: 46.8 ng/mL
- concentration at 24 h [1, 5]: 17.4 ng/mL
- concentration at 24 h [1, 6]: 16.6 ng/mL
- HL_Lambda_z ([1]; single intravenous 1 mg/kg, Mean): 1.00 h
- HL_Lambda_z [1, 7]: 1.06 h
- HL_Lambda_z ([1]; single intravenous 1 mg/kg, animal 102M): 1.00 h
- HL_Lambda_z ([1]; single intravenous 1 mg/kg, animal 103M): 0.94 h
- Cl—F—pred ([1]; single oral 10 mg/kg, Mean): 14.3 mL/min/kg
- F ([1]; single oral 10 mg/kg, Mean): 41.02%
- HL_Lambda_z ([1]; single oral 10 mg/kg, Mean): 3.60 h
- Cl—F—pred [1, 8]: 15.2 mL/min/kg
- F [1, 8]: 35.12%
- HL_Lambda_z [1, 8]: 4.35 h
- Cl—F—pred [1, 9]: 9.33 mL/min/kg
- F [1, 9]: 58.28%
- HL_Lambda_z [1, 9]: 2.95 h
- Cl—F—pred [1, 10]: 18.3 mL/min/kg
- F [1, 10]: 29.66%
- HL_Lambda_z [1, 10]: 3.50 h
- concentration at 0.08 h [1, 11]: 2600 ng/mL
- concentration at 0.08 h [1, 12]: 2720 ng/mL
- concentration at 0.08 h [1, 13]: 2400 ng/mL
- concentration at 0.08 h [1, 14]: 2690 ng/mL
- concentration at 0.25 h [1, 11]: 1950 ng/mL
- concentration at 0.25 h [1, 12]: 2020 ng/mL
- concentration at 0.25 h [1, 13]: 1920 ng/mL
- concentration at 0.25 h [1, 14]: 1910 ng/mL
- concentration at 0.5 h [1, 11]: 1630 ng/mL
- concentration at 0.5 h [1, 12]: 1760 ng/mL
- concentration at 0.5 h [1, 13]: 1390 ng/mL
- concentration at 0.5 h [1, 14]: 1720 ng/mL
- concentration at 1 h [1, 11]: 884 ng/mL
- concentration at 1 h [1, 12]: 876 ng/mL
- concentration at 1 h [1, 13]: 842 ng/mL
- concentration at 1 h [1, 14]: 934 ng/mL
- concentration at 2 h [1, 11]: 428 ng/mL
- concentration at 2 h [1, 12]: 398 ng/mL
- concentration at 2 h [1, 13]: 372 ng/mL
- concentration at 2 h [1, 14]: 512 ng/mL
- concentration at 4 h [1, 11]: 82.5 ng/mL
- concentration at 4 h [1, 12]: 87.6 ng/mL
- concentration at 4 h [1, 13]: 67.1 ng/mL
- concentration at 4 h [1, 14]: 92.8 ng/mL
- concentration at 8 h [1, 11]: 7.8 ng/mL
- concentration at 8 h [1, 12]: 8.6 ng/mL
- concentration at 8 h [1, 13]: 9.1 ng/mL
- concentration at 8 h [1, 14]: 5.6 ng/mL
- AUC(0-t) [1, 15]: 3030 ng·h/mL
- Cmax [1, 15]: 2600 ng/mL
- AUC(0-inf) [1, 15]: 3040 ng·h/mL
- clearance [1, 15]: 5.5 mL/min/kg
- MRT inf [1, 15]: 1.18 h
- Vd [1, 15]: 0.48 L/kg
- AUC(0-t) [1, 16]: 3090 ng·h/mL
- Cmax [1, 16]: 2720 ng/mL
- AUC(0-inf) [1, 16]: 3100 ng·h/mL
- clearance [1, 16]: 5.33 mL/min/kg
- MRT inf [1, 16]: 1.17 h
- Vd [1, 16]: 0.49 L/kg
- AUC(0-t) [1, 17]: 2740 ng·h/mL
- Cmax [1, 17]: 2400 ng/mL
- AUC(0-inf) [1, 17]: 2750 ng·h/mL
- clearance [1, 17]: 6 mL/min/kg
- MRT inf [1, 17]: 1.16 h
- Vd [1, 17]: 0.53 L/kg
- AUC(0-t) [1, 18]: 3270 ng·h/mL
- Cmax [1, 18]: 2690 ng/mL
- AUC(0-inf) [1, 18]: 3280 ng·h/mL
- clearance [1, 18]: 5 mL/min/kg
- MRT inf [1, 18]: 1.21 h
- Vd [1, 18]: 0.41 L/kg
- concentration at 2 h [1, 19]: 920 ng/mL
- concentration at 2 h [1, 20]: 675 ng/mL
- concentration at 2 h [1, 21]: 1280 ng/mL
- concentration at 2 h [1, 22]: 801 ng/mL
- concentration at 4 h [1, 19]: 1280 ng/mL
- concentration at 4 h [1, 20]: 1310 ng/mL
- concentration at 4 h [1, 21]: 1720 ng/mL
- concentration at 4 h [1, 22]: 814 ng/mL
- concentration at 8 h [1, 20]: 451 ng/mL
- AUC(0-t) [1, 23]: 12400 ng·h/mL
- Cmax [1, 23]: 1280 ng/mL
- AUC(0-inf) [1, 23]: 12600 ng·h/mL
- MRT inf [1, 23]: 6.14 h
- Vd/F [1, 23]: 4.57 L/kg
- AUC(0-t) [1, 24]: 10700 ng·h/mL
- Cmax [1, 24]: 1310 ng/mL
- AUC(0-inf) [1, 24]: 10900 ng·h/mL
- MRT inf [1, 24]: 6.58 h
- Vd/F [1, 24]: 5.74 L/kg
- AUC(0-t) [1, 25]: 17700 ng·h/mL
- Cmax [1, 25]: 1720 ng/mL
- AUC(0-inf) [1, 25]: 17800 ng·h/mL
- MRT inf [1, 25]: 5.87 h
- Vd/F [1, 25]: 2.4 L/kg
- AUC(0-t) [1, 26]: 9000 ng·h/mL
- Cmax [1, 26]: 814 ng/mL
- AUC(0-inf) [1, 26]: 9080 ng·h/mL
- MRT inf [1, 26]: 5.96 h
- Vd/F [1, 26]: 5.57 L/kg
- Tmax [1, 7]: 0.08 h
- Tmax [1, 8]: 4 h
- Remainder ([2]; 0 h): 100.00%
- Remainder ([2]; 10 min): 74.20%
- Remainder ([2]; 0.5 h): 38.61%
- Remainder ([2]; 1.5 h): 7.93%
Structure (SMILES): CCOc1cccc(Nc2nn(C)c3c2Cc2cc(OCC)c(OCC(N)=O)cc2-3)c1 [LL-01]
